Experimental data as given in ChEMBL document CHEMBL5390246, “Design, synthesis and SAR of novel 7-azaindole derivatives as potential Erk5 kinase inhibitor with anticancer activity” (Bioorg Med Chem, 2023).
≈ marks a conversion by molar mass, not a printed value. Calls of active or inactive are those of the source. The calls are words filed in the database; no cut-off is given here.

Experiments:
A549 [1] = test: Antiproliferative activity against human A549 cells assessed as cell growth inhibition rate at 20 ug/mL incubated for 48 hrs by MTT assay relative to control; type: functional; design: scale not given: the % may be the effect or the level left; details: dose 20 µg/ml
A549 [2] = test: Induction of apoptosis in human A549 cells assessed as chromatin condensation at 2.5 to 10 uM incubated for 48 hrs by DAPI staining based fluorescence microscopic analysis; type: functional, cell-based; details: dose 2.5-10 µM
A549 [3] = test: Antiproliferative activity against human A549 cells assessed as cell growth inhibition incubated for 48 hrs by MTT assay; type: functional, cell-based; details: A549, 48 h
A549 [4] = test: Induction of apoptosis in human A549 cells assessed as irregular cell morphology at 2.5 to 10 uM incubated for 48 hrs by light microscopic analysis; type: functional, cell-based; details: dose 2.5-10 µM
A549 [5] = test: Induction of apoptosis in human A549 cells assessed as formation of apoptotic bodies at 2.5 to 10 uM incubated for 48 hrs by DAPI staining based fluorescence microscopic analysis; type: functional, cell-based; details: dose 2.5-10 µM
A549 [6] = test: Induction of apoptosis in human A549 cells assessed as inhibition of colony formation incubated for 10 days by crystal violet staining based assay; type: functional, cell-based; details: dose 2.5-10 µM, time 10.0 day
A549 [7] = test: Antitumor activity against human A549 cells assessed as decrease in phosphorylation of Erk5 incubated for 48 hrs by Western blotting analysis; type: functional, cell-based; details: dose 2.5-10 µM

SMILES | Activity (A549 [1]) [%] | also measured
O=C(c1ccc(C(F)(F)F)cc1)N1CC=C(c2c[nH]c3ncccc23)CC1 | 65.74 | –
O=C(c1ccccc1F)N1CCC(c2c[nH]c3ncccc23)CC1 | 48.02 | –
C1=C(c2c[nH]c3ncccc23)CCN(Cc2ccccc2)C1 | 44.74 | –
O=C(c1ccc(F)cc1)N1CC=C(c2c[nH]c3ncccc23)CC1 | 59.94 | –
S=C(c1ccc(Cl)cc1)N1CC=C(c2c[nH]c3ncccc23)CC1 | 51.43 | –
N#Cc1ccc(CN2CC=C(c3c[nH]c4ncccc34)CC2)cc1 | 9.76 | –
O=C(c1ccccc1F)N1CC=C(c2c[nH]c3ccccc23)CC1 | 50.26 | –
Brc1ccc(CN2CC=C(c3c[nH]c4ncccc34)CC2)cc1 | -25.78 | –
Fc1ccccc1C(=S)N1CC=C(c2c[nH]c3ncccc23)CC1 | 65.92 | –
COc1ccc(CN2CC=C(c3c[nH]c4ncccc34)CC2)cc1 | -3.33 | –
Fc1ccccc1CN1CC=C(c2c[nH]c3ncccc23)CC1 | 3.55 | –
Clc1ccc(CN2CC=C(c3c[nH]c4ncccc34)CC2)cc1 | 0.74 | –
Fc1ccc(CN2CC=C(c3c[nH]c4ncccc34)CC2)cc1 | 43.89 | –
O=C(c1ccc(Cl)cc1)N1CCC(c2c[nH]c3ncccc23)CC1 | 50.17 | –
C1=C(c2c[nH]c3ccccc23)CCN(Cc2ccc3ccccc3c2)C1 | 70.17 | –
O=C(c1ccc(Cl)cc1)N1CC=C(c2c[nH]c3ncccc23)CC1 | 82.78 | Activity (A549 [2]): Active; IC50 (A549 [3]): 6.23 µg/mL (≈ 18.4 µM); Activity (A549 [4]): Active; Activity (A549 [5]): Active; Activity (A549 [6]): Dose-Dependent Effect; Activity (A549 [7]): Dose-Dependent Effect
Clc1ccccc1CN1CC=C(c2c[nH]c3ncccc23)CC1 | 84.18 | IC50 (A549 [3]): 12 µg/mL (≈ 37 µM)
Clc1ccc(CN2CC=C(c3c[nH]c4ncccc34)CC2)cc1Cl | 80.28 | IC50 (A549 [3]): 7.33 µg/mL (≈ 20.5 µM)
O=C(c1ccc(Cl)c(Cl)c1)N1CC=C(c2c[nH]c3ncccc23)CC1 | 66.12 | –
FC(F)(F)c1ccc(CN2CC=C(c3c[nH]c4ncccc34)CC2)cc1 | 44.64 | –

SMILES | Activity (A549 [1]) [%] | also measured
c1ccc2cc(CN3CCC(c4c[nH]c5ncccc45)CC3)ccc2c1 | 76.69 | –
O=[N+]([O-])c1ccc(CN2CC=C(c3c[nH]c4ncccc34)CC2)cc1 | 16.85 | –
O=C(c1ccccc1)N1CC=C(c2c[nH]c3ncccc23)CC1 | 58.37 | –
O=C(c1ccc2ccccc2c1)N1CC=C(c2c[nH]c3ncccc23)CC1 | 62.25 | –
Clc1ccc(CN2CCC(c3c[nH]c4ncccc34)CC2)cc1Cl | 32.22 | –
N#Cc1ccc(C(=O)N2CC=C(c3c[nH]c4ncccc34)CC2)cc1 | 21.45 | –
Cc1ccc(CN2CC=C(c3c[nH]c4ncccc34)CC2)cc1 | 54.95 | –
O=C(c1ccc(Br)cc1)N1CC=C(c2c[nH]c3ncccc23)CC1 | 71.11 | IC50 (A549 [3]): 11 µg/mL (≈ 28.7 µM)
C1=C(c2c[nH]c3ncccc23)CCN(Cc2ccc3ccccc3c2)C1 | 90.08 | Activity (A549 [2]): Active; IC50 (A549 [3]): 4.56 µg/mL (≈ 13.4 µM); Activity (A549 [4]): Active; Activity (A549 [5]): Active; Activity (A549 [6]): Dose-Dependent Effect; Activity (A549 [7]): Dose-Dependent Effect
COc1ccc(C(=O)N2CC=C(c3c[nH]c4ncccc34)CC2)cc1 | 70.89 | IC50 (A549 [3]): 10.4 µg/mL (≈ 31.3 µM)
Clc1cccc(CN2CC=C(c3c[nH]c4ncccc34)CC2)c1 | 52.55 | –
O=C(c1ccc(Cl)cc1)N1CC=C(c2c[nH]c3ccccc23)CC1 | 67.52 | –
O=C(c1ccc([N+](=O)[O-])cc1)N1CC=C(c2c[nH]c3ncccc23)CC1 | 69.77 | –
Cc1ccc(C(=O)N2CC=C(c3c[nH]c4ncccc34)CC2)cc1 | 41.24 | –
O=C(c1ccccc1F)N1CC=C(c2c[nH]c3ncccc23)CC1 | 75.54 | IC50 (A549 [3]): 8.52 µg/mL (≈ 26.5 µM)
O=C(c1ccccc1Cl)N1CC=C(c2c[nH]c3ncccc23)CC1 | 52.62 | –
FC(F)(F)Oc1ccc(CN2CC=C(c3c[nH]c4ncccc34)CC2)cc1 | 46.56 | –
Nc1ccc(C(=O)N2CC=C(c3c[nH]c4ncccc34)CC2)cc1 | 45.12 | –
Clc1ccc(CN2CC=C(c3c[nH]c4ccccc34)CC2)cc1Cl | 56.41 | –
O=C(c1cccc(Cl)c1)N1CC=C(c2c[nH]c3ncccc23)CC1 | 73.66 | IC50 (A549 [3]): 10.3 µg/mL (≈ 30.6 µM)
